The conditions of data set [1]: cited from earlier work.
Data set [2] has as its system Huh7 human hepatocellular carcinoma cells. Put plainly: Cytotoxicity of drug-loaded liposomes (MTT). It counts as cell-based. How it is done: Huh7 human hepatocellular carcinoma cells (donation of Prof. Wanqing Liu) were cultured in RPMI-1640 medium complemented with 10% FBS, 100 U/mL penicillin, and […] streptomycin at 37° C. in a humidified 5% CO2 atmosphere. Huh7 cells were seeded in a 96 well plate at a density of 10,000 cells per well and grown to 70% confluence. Huh7 cells were exposed to free drug or liposomal preparations for 3 or 6 h. The cells were rinsed twice with fresh medium and kept in drug-free medium for 72 h. In another experiment, Huh7 cells were incubated with a free Gem, LRSG, LRHG, free Dox, LRD, blank liposomes, free drug mixture, or liposome mixture for 72 h. The medium was then removed, and 15 μL of 5 mg/mL MTT solution and 100 μL media were added to each well and incubated for 4 h at 37° C. Each well was then treated with 100 μL of stop/solubilization solution and agitated at 37° C. overnight. The absorbance of dissolved formazan was measured at 562 nm by a SpectraMax M3 microplate reader (Molecular Devices, Sunnyvale, Calif.).

Data set [3] concerns Huh7 cells. Kind of data set: Cellular uptake of drug-loaded liposomes, quantitative analysis. The settings on record: Huh7, 50 μM Dox equivalent; evident at 3, 6 and 12 h. It counts as cell-based, human. Here is the method: Huh7 Cells were seeded in a 12 well plate at a density of 10^5 cells per well. After overnight incubation, the cells were treated with LRHG, LRSG, or free Gem at a concentration equivalent to 50 μM Gem, or with LRD or free Dox at a concentration equivalent to 50 μM Dox. At 3, 6, 12, and 24 h post-treatment, the cells were rinsed twice with cold PBS, trypsinized and collected by centrifugation at 233 rcf. The cell pellets were suspended in PBS and lysed by three cycles of freezing and thawing followed by probe sonication. The protein content in each cell lysate was measured by micro BCA assay. A hundred microliters of cell lysate was mixed with 200 μL of acetonitrile, bath sonicated for 1 h, and centrifuged at 16100 rcf for 30 min to separate a supernatant. The supernatant was evaporated under vacuum overnight and reconstituted in 100 μL of PBS. Dox was detected by the microplate reader at λEx/λEm of 488 nm/580 nm. dFdCTP was detected by HPLC using a 64:36 v/v mixture of two aqueous mobile phases: (i) KH2PO4 10 mM, tetra butyl ammonium bromide (TBABr) 10 mM, pH 7 and 0.25% methanol and (ii) KH2PO4 250 mM, TBABr 10 mM, pH 7 and 15% methanol, run at 1.2 mL/min, and a detection wavelength of 271 nm.

For data set [4], the system named is Huh7 cells. Put plainly: Confocal imaging of cellular uptake. It counts as cell-based, human. The following applies: 10 min, 3 h, 10 h, with or without chloroquine. How it is done:
Huh7 were seeded in a 35 mm glass-bottomed dish (Mat Tek Corp., Ashland, Mass.) at a density of 100,000 cells per dish. At 70% confluence, the cells were treated with free Dox for 10 min or fluorescently labeled liposomes (*LRD, labeled with 25-NBD cholesterol) for 10 min, 3 h or 10 h. At each time point, the cells were rinsed twice with PBS. After nuclei staining with Hoechst 33342 ([…]) for 10 min, the cells were rinsed again with PBS and imaged in medium by a Nikon-A1R confocal microscope (Nikon America Inc., Melville, N.Y.). For selected treatments, chloroquine was added 12 h prior to the treatment. The cells were rinsed with PBS and incubated with the labeled liposomes for confocal imaging.

A short description of data set [5]: pKa and ionization of drug. It counts as physicochemical. The following applies: internal pH 3.6.
For data set [6] the following is noted: literature (Bornmann et al.); cited from earlier work.
For data set [7] the following is noted: upon systemic administration; cited from earlier work.

Turning to `COc1cccc2c1C(=O)c1c(O)c3c(c(O)c1C2=O)C[C@@](O)(C(=O)CO)C[C@@H]3O[C@H]1C[C@H](N)[C@H](O)[C@H](C)O1.Cl` [Dox, Doxorubicin HCl], in data set [1], the pKa is listed as 8.68. Besides, in data set [2] (72 h incubation), the IC50 worked out at 250 nM. For the same molecule, the “cellular uptake of Dox” value in the data set on Huh7 cells [3] is “entering cells more efficiently than LRD”. In addition, the “cellular uptake and localisation by confocal microscope imaging” value in the data set with Huh7 cells [4] is “appearing in the nuclei as early as in 10 min”. The “ionized/unionized ratio in the interior of liposomes” value in data set [5] is on record as 120,000.

With `Nc1ccn([C@@H]2O[C@H](CO)[C@@H](O)C2(F)F)c(=O)n1` [Gem, Gemcitabine], the pKa in data set [1] is reported as 3.6. The molecule also showed an IC50 in data set [2] (Homo sapiens, Huh-7, 72 h incubation) of 1600 nM. Moreover, in data set [6], the “reported maximum tolerated dose” value is reported as 16 mg/kg. The half-life in data set [7] is 8 to 17 min.

Values taken from patent US20220117895A1, “PREPARING LIPOSOMES WITH HIGH DRUG LOADING CAPACITY AND THE USE THEREOF” (Purdue Research Foundation, priority 2019, published 2022).
